The values that follow come from patent US10363239B2, “Method for inhibiting growth of cancer cells” (Pain Therapeutics, Inc., priority 2013, dated 2019).

Each structure is given as a SMILES string. Read-outs that look alike come from different tables or passages of the source.

One test deals with mu opiate receptor (MOR). In words: MOR agonist activity using [35S]GTPγS binding assay in striatal membranes. The test is classed as biochemical. The following applies: for MOR agonist activity ([35S]GTPγS binding), FLNA-Binding Compound as Agonist 0.1 μM: 0.1 μM compound; for % DAMGO (0.1 μM): 0.1 μM compound relative to DAMGO; for MOR agonist activity ([35S]GTPγS binding), FLNA-Binding Compound as Agonist 1 μM: 1 μM compound; for MOR agonist activity ([35S]GTPγS binding), FLNA-Binding Compound as Agonist 1 μM + BFNA: 1 μM compound + 1 μM β-funaltrexamine; for % DAMGO + BFNA: 1 μM compound + BFNA relative to DAMGO + BFNA; for % DAMGO (1 μM): 1 μM compound relative to DAMGO. Put shortly: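 Striatal membranes (200 μg) were preincubated 5 min at 30 °C in HEPES pH 7.5 with 100 mM NaCl, 1 mM MgCl2 and 0.5 nM [35S]GTPγS, then 5 min more with 0.1–10 μM compound. Gαo was immunoprecipitated and bound radioactivity counted by scintillation.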
For orientation: GTPγS resists hydrolysis and so accumulates on activated G proteins.

The target in test [1] is FLNA pentapeptide of SEQ ID NO: 1 (Bn-VAKGL) (Homo sapiens, UniProt P21333). In words: FITC-NLX-based FLNA screening assay (inhibition of FITC-naloxone binding to Bn-VAKGL on streptavidin plates). The following applies: 10 nM FITC-NLX.
The mark [2] stands for this setting: read-out: Percent Binding Inhibition, FLNA-binding compound 0.01 μM.
The mark [3] stands for this setting: read-out: Percent Binding Inhibition, FLNA-binding compound 0.1 μM.
The mark [4] stands for this setting: read-out: Percent Binding Inhibition, FLNA-binding compound 1 μM.
[5] abbreviates: FLNA-binding compound 0.01 μM, read-out: Percent Binding Inhibition.
Where [6] appears, read: FLNA-binding compound 0.1 μM, read-out: Percent Binding Inhibition.
Setting [7] is: FLNA-binding compound 1 μM, read-out: Percent Binding Inhibition.

What is called inhibition is the change of the read-out against control, counted positive when it falls. As for `CC1CCC(C(C)C)C(OCC(O)Cn2cccc2)C1` (stereo not drawn) [Compound A0038], in the test on mu opiate receptor (MOR), the “MOR agonist activity ([35S]GTPγS binding), FLNA-Binding Compound as Agonist 0.1 μM” value (“MOR agonist activity … as Agonist 0.1 μM” for short) is 176.7%; the “% DAMGO (0.1 μM)” value is on record as 90.1%; the “MOR agonist activity ([35S]GTPγS binding), FLNA-Binding Compound as Agonist 1 μM” value came out at 234.5%; the “MOR agonist activity ([35S]GTPγS binding), FLNA-Binding Compound as Agonist 1 μM + BFNA” value (from here on “MOR agonist activity … as Agonist 1 μM + BFNA”) is reported as 107.0%. In the test with mu opiate receptor (MOR), the “% DAMGO + BFNA” value is given as 144.8% and the “% DAMGO (1 μM)” value is 85.0%. Moreover, in test [1] (setting [2]), the inhibition at 0.01 µM was 46.4%. Further, the inhibition at 0.1 µM in test [1] (setting [3]) is 52.3%. Also, the inhibition at 1 µM in test [1] (setting [4]) turned out to be 56.6%.

Regarding `CC1CCC(C(C)C)C(OCC(O)CN2CCc3ccccc3C2)C1` (stereo not drawn) [Compound A0040], in the test on mu opiate receptor (MOR), the “MOR agonist activity … as Agonist 0.1 μM” value is given as 46.1%; the “% DAMGO (0.1 μM)” value amounted to 23.5%; the “MOR agonist activity ([35S]GTPγS binding), FLNA-Binding Compound as Agonist 1 μM” value came out at 149.0%; the “MOR agonist activity … as Agonist 1 μM + BFNA” value was determined as 16.7%. Besides, in the test with mu opiate receptor (MOR), the “% DAMGO + BFNA” value came to 22.6% and the “% DAMGO (1 μM)” value amounted to 54.0%. In addition, the inhibition at 0.01 µM in test [1] (setting [2]) stood at 45%. In test [1] (setting [3]), the inhibition at 0.1 µM was determined as 50.4%. Moreover, the inhibition at 1 µM in test [1] (setting [4]) is 56.3%.

Turning to `CC1CN(CC(O)COc2ccc(Br)c(F)c2)CC(C)O1` (stereo not drawn) [Compound A0041], in the test with mu opiate receptor (MOR), the “MOR agonist activity … as Agonist 0.1 μM” value is 212.7%; the “% DAMGO (0.1 μM)” value amounted to 108.4%; the “MOR agonist activity ([35S]GTPγS binding), FLNA-Binding Compound as Agonist 1 μM” value was 283.6%; the “MOR agonist activity … as Agonist 1 μM + BFNA” value amounted to 50.6%. Besides, in the test with mu opiate receptor (MOR), the “% DAMGO + BFNA” value was 68.5% and the “% DAMGO (1 μM)” value is reported as 102.8%. Also, the inhibition at 0.01 µM in test [1] (setting [2]) was 45.8%. In addition, the inhibition at 0.1 µM in test [1] (setting [3]) is 51.7%. In test [1] (setting [4]), the inhibition at 1 µM stood at 56.9%.

As to `CC1CN(CC(O)COc2cccc(N(C)C)c2)CC(C)O1` (stereo not drawn) [Compound A0042], in the test on mu opiate receptor (MOR), the “MOR agonist activity … as Agonist 0.1 μM” value is listed as 147.5%; the “% DAMGO (0.1 μM)” value was found to be 75.2%; the “MOR agonist activity ([35S]GTPγS binding), FLNA-Binding Compound as Agonist 1 μM” value is given as 233.1%; the “MOR agonist activity … as Agonist 1 μM + BFNA” value stood at 89.5%. Moreover, in the test on mu opiate receptor (MOR), the “% DAMGO + BFNA” value was 121.1% and the “% DAMGO (1 μM)” value is recorded as 84.5%. The inhibition at 0.01 µM in test [1] (setting [5]) is 47.2%. Moreover, the inhibition at 0.1 µM in test [1] (setting [6]) amounted to 48.3%. Further, the inhibition at 1 µM in test [1] (setting [7]) is 55.8%.

For `CC1CN(CC(O)COc2ccccc2Br)CC(C)O1` (stereo not drawn) [Compound A0043], in the test with mu opiate receptor (MOR), the “MOR agonist activity … as Agonist 0.1 μM” value was 183.3%; the “% DAMGO (0.1 μM)” value is given as 93.4%; the “MOR agonist activity ([35S]GTPγS binding), FLNA-Binding Compound as Agonist 1 μM” value is 223.8%; the “MOR agonist activity … as Agonist 1 μM + BFNA” value was 89.1%. In addition, in the test on mu opiate receptor (MOR), the “% DAMGO + BFNA” value is listed as 120.6% and the “% DAMGO (1 μM)” value is reported as 81.1%. Moreover, the inhibition at 0.01 µM in test [1] (setting [5]) was 46.4%. Also, the inhibition at 0.1 µM in test [1] (setting [6]) is 48.9%. Further, in test [1] (setting [7]), the inhibition at 1 µM came out at 51.8%.

In the case of `CC(=O)c1ccc(OCC(O)CN2CC(C)OC(C)C2)cc1` (stereo not drawn) [Compound A0044], in the test on mu opiate receptor (MOR), the “MOR agonist activity … as Agonist 0.1 μM” value is 176.2%; the “% DAMGO (0.1 μM)” value amounted to 89.8%; the “MOR agonist activity ([35S]GTPγS binding), FLNA-Binding Compound as Agonist 1 μM” value turned out to be 209.1%; the “MOR agonist activity … as Agonist 1 μM + BFNA” value was determined as 134.7%. Further, in the test with mu opiate receptor (MOR), the “% DAMGO + BFNA” value came to 182.3% and the “% DAMGO (1 μM)” value is listed as 75.8%. The inhibition at 0.01 µM in test [1] (setting [5]) came out at 32.4%. Moreover, the inhibition at 0.1 µM in test [1] (setting [6]) worked out at 36.9%. The inhibition at 1 µM in test [1] (setting [7]) turned out to be 39.6%.

Take `CC1CN(CC(O)COc2ccc(Br)c(Cl)c2)CC(C)O1` (stereo not drawn) [Compound A0045]: in the test with mu opiate receptor (MOR), the “MOR agonist activity … as Agonist 0.1 μM” value is given as 143.9%; the “% DAMGO (0.1 μM)” value was 73.3%; the “MOR agonist activity ([35S]GTPγS binding), FLNA-Binding Compound as Agonist 1 μM” value was 274.2%; the “MOR agonist activity … as Agonist 1 μM + BFNA” value stood at 99.2%. For the same molecule, in the test with mu opiate receptor (MOR), the “% DAMGO + BFNA” value is recorded as 134.2% and the “% DAMGO (1 μM)” value turned out to be 99.3%. For the same molecule, the inhibition at 0.01 µM in test [1] (setting [5]) turned out to be 28.1%. Further, the inhibition at 0.1 µM in test [1] (setting [6]) amounted to 35%. In test [1] (setting [7]), the inhibition at 1 µM came out at 37.8%.

In the case of `CC1CN(CC(O)COc2cc(F)cc(F)c2)CC(C)O1` (stereo not drawn) [Compound A0046], in the test with mu opiate receptor (MOR), the “MOR agonist activity … as Agonist 0.1 μM” value is recorded as 257.5%; the “% DAMGO (0.1 μM)” value is on record as 131.2%; the “MOR agonist activity ([35S]GTPγS binding), FLNA-Binding Compound as Agonist 1 μM” value is 354.1%; the “MOR agonist activity … as Agonist 1 μM + BFNA” value came out at 140.0%. Further, in the test on mu opiate receptor (MOR), the “% DAMGO + BFNA” value is recorded as 189.4% and the “% DAMGO (1 μM)” value is on record as 128.3%. Besides, the inhibition at 0.01 µM in test [1] (setting [5]) stood at 34.3%. The inhibition at 0.1 µM in test [1] (setting [6]) amounted to 38.4%. Also, in test [1] (setting [7]), the inhibition at 1 µM amounted to 40.9%.
